Assay: Inhibition of T-cell proliferation was determined by a human T-cell assay

First: COc1ccccc1C(=O)NC[C@]1(c2ccccc2)CC[C@H](NC(=O)Cc2ccccc2)CC1 [2-Methoxy-N-(1-phenyl-4-phenylacetylamino-cyclohexylmethyl)-benzamide]
Second: COc1ccccc1C(=O)NC[C@]1(c2ccccc2)CC[C@H](NC(=O)CCc2ccccc2)CC1 [2-Methoxy-N-[1-phenyl-4-(3-phenyl-propionylamino)-cyclohexylmethyl]-benzamide]
The IC50 of the first is 3-fold higher: 609 nM for the first, 200 nM for the second.

First: COc1ccccc1C(=O)NCC1(c2ccccc2)CCC(=O)CC1 [2-Methoxy-N-(4-oxo-1-phenyl-cyclohexylmethyl)-benzamide]
Second: COc1ccccc1C(=O)NC[C@]1(c2ccccc2)CC[C@H](OC(N)=O)CC1 [Carbamic acid 4-[(2-methoxy-benzoylamino)-methyl]-4-phenyl-cyclohexyl ester]
The IC50 of the first is 2.3-fold higher: 1200 nM for the first, 519 nM for the second.

Compared with `COc1ccccc1C(=O)NC[C@]1(c2ccccc2)CC[C@@H](OC(=O)NCCO)CC1` [(2-Hydroxy-ethyl)-carbamic acid 4-[(2-methoxy-benzoylamino)-methyl]-4-phenyl-cyclohexyl ester], `CCCNC(=O)O[C@H]1CC[C@@](CNC(=O)c2ccccc2OC)(c2ccccc2)CC1` [Propyl-carbamic acid 4-[(2-methoxy-benzoylamino)-methyl]-4-phenyl-cyclohexyl ester] is 6.6-fold lower in IC50: 1790 nM for the first, 273 nM for the second. The second is the more potent here.

`COCCNC(=O)O[C@H]1CC[C@@](CNC(=O)c2ccccc2OC)(c2ccccc2)CC1` [(2-Methoxy-ethyl)-carbamic acid 4-[(2-methoxy-benzoylamino)-methyl]-4-phenyl-cyclohexyl ester] and `CCCCNC(=O)O[C@H]1CC[C@@](CNC(=O)c2ccccc2OC)(c2ccccc2)CC1` [Butyl-carbamic acid 4-[(2-methoxy-benzoylamino)-methyl]-4-phenyl-cyclohexyl ester] are within 1.5-fold of each other in IC50: 1000 nM for the first, 688 nM for the second.

First: C=C(C)CNC(=O)O[C@H]1CC[C@@](CNC(=O)c2ccccc2OC)(c2ccccc2)CC1 [(2-Methyl-allyl)-carbamic acid 4-[(2-methoxy-benzoylamino)-methyl]-4-phenyl-cyclohexyl ester]
Second: C=CCNC(=O)O[C@H]1CC[C@@](CNC(=O)c2ccccc2OC)(c2ccccc2)CC1 [Allyl-carbamic acid 4-[(2-methoxy-benzoylamino)-methyl]-4-phenyl-cyclohexyl ester]
The IC50 of the first is 1.9-fold higher: 688 nM for the first, 361 nM for the second.

Compared with `C=CCNC(=O)O[C@H]1CC[C@](CNC(=O)c2ccccc2OC)(c2ccccc2)CC1` [Allyl-carbamic acid 4-[(2-methoxy-benzoylamino)-methyl]-4-phenyl-cyclohexyl ester], `CNC(=O)O[C@H]1CC[C@@](CNC(=O)c2ccccc2OC)(c2ccccc2)CC1` [Methyl-carbamic acid 4-[(2-methoxy-benzoylamino)-methyl]-4-phenyl-cyclohexyl ester] is 5.6-fold lower in IC50: 1100 nM for the first, 195 nM for the second.

Compared with `C=CCN(C)C(=O)O[C@H]1CC[C@](CNC(=O)c2ccccc2OC)(c2ccccc2)CC1` [Allyl-methyl-carbamic acid 4-[(2-methoxy-benzoylamino)-methyl]-4-phenyl-cyclohexyl ester], `CNC(=O)O[C@H]1CC[C@](CNC(=O)c2ccccc2OC)(c2ccccc2)CC1` [Methyl-carbamic acid 4-[(2-methoxy-benzoylamino)-methyl]-4-phenyl-cyclohexyl ester] is 1.9-fold higher in IC50: 659 nM for the first, 1260 nM for the second.

Going from `COc1ccccc1C(=O)NC[C@]1(c2ccccc2)CC[C@H](OC(=O)NCc2ccccc2)CC1` [Benzyl-carbamic acid 4-[(2-methoxy-benzoylamino)-methyl]-4-phenyl-cyclohexyl ester] to `COc1ccccc1C(=O)NC[C@]1(c2ccccc2)CC[C@H](OC(=O)Nc2ccccc2)CC1` [Phenyl-carbamic acid 4-[(2-methoxy-benzoylamino)-methyl]-4-phenyl-cyclohexyl ester], the IC50 falls from 915 nM to 237 nM (3.9-fold).

`CCCCNC(=O)O[C@H]1CC[C@](CNC(=O)c2ccccc2OC)(c2ccccc2)CC1` [Butyl-carbamic acid 4-[(2-methoxy-benzoylamino)-methyl]-4-phenyl-cyclohexyl ester] and `COc1ccccc1C(=O)NC[C@]1(c2ccccc2)CC[C@@H](OC(=O)NC(C)C)CC1` [Isopropyl-carbamic acid 4-[(2-methoxy-benzoylamino)-methyl]-4-phenyl-cyclohexyl ester] are within 1.5-fold of each other in IC50: 320 nM for the first, 222 nM for the second.

`COc1ccccc1C(=O)NC[C@]1(c2ccccc2)CC[C@H](OC(=O)NC(C)C)CC1` [Isopropyl-carbamic acid 4-[(2-methoxy-benzoylamino)-methyl]-4-phenyl-cyclohexyl ester] and `COC(=O)N[C@H]1CC[C@@](CNC(=O)c2ccccc2OC)(c2ccccc2)CC1` [{4-[(2-Methoxy-benzoylamino)-methyl]-4-phenyl-cyclohexyl}-carbamic acid methyl ester] are within 1.5-fold of each other in IC50: 892 nM for the first, 1060 nM for the second.

Going from `COc1ccccc1C(=O)NC[C@]1(c2ccccc2)CC[C@H](NC(=O)c2ccccc2)CC1` [N-(4-Benzoylamino-1-phenyl-cyclohexylmethyl)-2-methoxy-benzamide] to `COc1ccccc1C(=O)NC[C@]1(c2ccccc2)CC[C@@H](NC(=O)SC)CC1` [{4-[(2-Methoxy-benzoylamino)-methyl]-4-phenyl-cyclohexyl}-thiocarbamic acid methyl ester], the IC50 rises from 154 nM to 618 nM (4-fold). The first is the more potent here.

First: C=CCNC(=O)N[C@H]1CC[C@@](CNC(=O)c2ccccc2OC)(c2ccccc2)CC1 [N-[4-(3-Allyl-ureido)-1-phenyl-cyclohexylmethyl]-2-methoxy-benzamide]
Second: C=CCNC(=O)N[C@H]1CC[C@](CNC(=O)c2ccccc2OC)(c2ccccc2)CC1 [N-[4-(3-Allyl-ureido)-1-phenyl-cyclohexylmethyl]-2-methoxy-benzamide]
The IC50 of the first is 1.6-fold higher: 676 nM for the first, 430 nM for the second.

`C/C=C/C(=O)N[C@H]1CC[C@](CNC(=O)c2ccccc2OC)(c2ccccc2)CC1` [N-[4-((E)-But-2-enoylamino)-1-phenyl-cyclohexylmethyl]-2-methoxy-benzamide] and `C=CCOC(=O)N[C@H]1CC[C@@](CNC(=O)c2ccccc2OC)(c2ccccc2)CC1` [{4-[(2-Methoxy-benzoylamino)-methyl]-4-phenyl-cyclohexyl}-carbamic acid allyl ester] are within 1.5-fold of each other in IC50: 399 nM for the first, 539 nM for the second.

Compound `C=CCOC(=O)N[C@H]1CC[C@](CNC(=O)c2ccccc2OC)(c2ccccc2)CC1` [{4-[(2-Methoxy-benzoylamino)-methyl]-4-phenyl-cyclohexyl}-carbamic acid allyl ester] has an IC50 of 354 nM.

Source: BindingDB's records for doi:10.1016/s0960-894x(03)00014-3 (Merck Research Laboratories, 2003)
